The values below come from US7531482B2, “Thieno-pyrimidine compounds having fungicidal activity” (Dow AgroSciences LLC, priority 2005, dated 2009).

Format in all cases: in vivo
The subject of assay [1] is Puccinia recondita tritici. As to the kind of experiment: Leaf Rust of Wheat (PUCCRT) whole-plant disease control test. Particulars: Puccinia recondita, foliar, 200 ppm applied to foliage of wheat; inoculated one day after treatment; read-out: PUCCRT disease control.
The test system of another assay is Colletotricum lagenarium. As to the kind of experiment: Cucumber Anthracnose (COLLLA) whole-plant disease control test. Conditions: Cucumis sativus, foliar; 200 ppm applied to foliage of cucumber; inoculated one day after treatment; read-out: COLLLA disease control.
A further assay has as its system Erysiphe cichoracaerum. The assay is described as follows: Cucumber Powdery Mildew (ERYSCI) whole-plant disease control test. Particulars: Erysiphe, foliar; 200 ppm applied to foliage of cucumber; inoculated one day after treatment; read-out: ERYSCI disease control.
For assay [2], the system named is Magnaporthe grisea=Pyricularia oryzae. As to the kind of experiment: whole plant or invertebrate. Conditions: Pyricularia oryzae, foliar, read-out: PYRIOR disease control, 200 ppm applied to foliage of rice; inoculated one day after treatment.
The next assay relates to Leptosphaeria nodorum. The assay is described as follows: Glume Blotch of Wheat (LEPTNO) whole-plant disease control test. Particulars: Parastagonospora nodorum, foliar; 200 ppm applied to foliage of wheat; inoculated one day after treatment; read-out: LEPTNO disease control.
Assay [3] deals with Mycosphaerella graminicola=Septoria tritici. As to the kind of experiment: Speckled Leaf Blotch of Wheat (SEPTTR) whole-plant disease control test. Particulars: Mycosphaerella, foliar, 75 ppm applied to foliage of wheat; read-out: SEPTTR disease control.
The subject of the next assay is Phytophthora infestans. The assay is described as follows: whole plant or invertebrate. Conditions: Phytophthora infestans, in Solanum lycopersicum, foliar, read-out: PHYTIN disease control, 200 ppm applied to foliage of tomato; inoculated one day after treatment.

In the case of `FC(F)(F)c1ccc(Oc2ccc(CCNc3ncnc4scc(Cl)c34)cc2)nc1` [Compound 1, 5-(Chlorothieno[2,3-d]pyrimidin-4-yl)-{2-[4-(5-trifluoromethylpyridin-2-yloxy)phenyl]ethyl}amine], the pest or weed control at 200 ppm in assay [1] fell in the range of 80 to 100%; in the assay with Colletotricum lagenarium, 0 to 49%; in the assay on Erysiphe cichoracaerum it was 50 to 79%; in assay [2] it was 80 to 100%; in the assay with Leptosphaeria nodorum, 50 to 79%; with Phytophthora infestans it was 0 to 49%. The pest or weed control at 75 ppm in assay [3] fell in the range of 50 to 79%.
Turning to `COC(=O)c1cccc(Oc2ccc(CCNc3ncnc4scc(Cl)c34)cc2)n1` [Compound 79], the pest or weed control at 200 ppm in assay [1] was 80 to 100%; with Colletotricum lagenarium, 0 to 49%; in the assay with Erysiphe cichoracaerum, 0 to 49%; in assay [2], 80 to 100%; in the assay on Leptosphaeria nodorum, 0 to 49%; with Phytophthora infestans, 80 to 100%. For the same compound, the pest or weed control at 75 ppm in assay [3] was in the range of 0 to 49%.
As to `CO/N=C\c1ccc(Oc2ccc(CCNc3ncnc4scc(Cl)c34)cc2)nc1` [Compound 34, 6-{4-[2-(5-Chlorothieno[2,3-d]pyrimidin-4-ylamino)ethyl]phenoxy}pyridine-3-carbaldehyde O-methyloxime], the pest or weed control at 200 ppm in assay [1] was in the range of 80 to 100%; in the assay with Colletotricum lagenarium it was 80 to 100%; in the assay on Erysiphe cichoracaerum, 80 to 100%; in assay [2], 80 to 100%; in the assay with Leptosphaeria nodorum it was 0 to 49%; in the assay with Phytophthora infestans, 0 to 49%. For the same compound, the pest or weed control at 75 ppm in assay [3] lay within 50 to 79%.
As for `Clc1csc2ncnc(NCCc3ccc(Oc4cnccn4)cc3)c12` [Compound 38], the pest or weed control at 200 ppm was in the range of 80 to 100% in assay [1]; 50 to 79% in the assay on Colletotricum lagenarium; 50 to 79% in the assay on Erysiphe cichoracaerum; 50 to 79% in assay [2]; 0 to 49% with Leptosphaeria nodorum; 50 to 79% in the assay with Phytophthora infestans. Besides, the pest or weed control at 75 ppm in assay [3] lay within 50 to 79%.
Consider `FC(F)(F)c1ccc(COc2ccc(CCNc3ncnc4scc(Cl)c34)cc2)o1` [Compound 105], for which the pest or weed control at 200 ppm in assay [1] was in the range of 50 to 79%; in the assay on Colletotricum lagenarium it was 0 to 49%; in the assay on Erysiphe cichoracaerum, 0 to 49%; in assay [2] it was 80 to 100%; in the assay with Leptosphaeria nodorum, 0 to 49%; in the assay with Phytophthora infestans it was 0 to 49%. Also, in assay [3], the pest or weed control at 75 ppm is 0 to 49%.
For `CC(=O)c1ccc(Oc2ccc(CCNc3ncnc4scc(Cl)c34)cc2)nc1` [Compound 39], the pest or weed control at 200 ppm in assay [1] lay in the range of 80 to 100%; in the assay on Colletotricum lagenarium it was 0 to 49%; in the assay with Erysiphe cichoracaerum it was 50 to 79%; in assay [2] it was 80 to 100%; with Leptosphaeria nodorum, 0 to 49%; in the assay on Phytophthora infestans, 80 to 100%. Also, in assay [3], the pest or weed control at 75 ppm lay in the range of 0 to 49%.
For the compound `CCOC(=O)c1ccc(Oc2ccc(CCNc3ncnc4scc(Cl)c34)cc2)nc1` [Compound 23], the pest or weed control at 200 ppm in assay [1] is 80 to 100%; with Colletotricum lagenarium, 0 to 49%; in the assay on Erysiphe cichoracaerum it was 0 to 49%; in assay [2], 50 to 79%; in the assay with Leptosphaeria nodorum it was 0 to 49%; in the assay on Phytophthora infestans, 50 to 79%. Further, the pest or weed control at 75 ppm in assay [3] was 0 to 49%.
As for `FC(F)(F)c1cc(Cl)nc(Oc2ccc(CCNc3ncnc4scc(Cl)c34)cc2)c1` [Compound 62], the pest or weed control at 200 ppm in assay [1] lay in the range of 80 to 100%; in the assay on Colletotricum lagenarium, 80 to 100%; with Erysiphe cichoracaerum, 50 to 79%; in assay [2], 80 to 100%; with Leptosphaeria nodorum, 0 to 49%; with Phytophthora infestans, 0 to 49%. Further, in assay [3], the pest or weed control at 75 ppm fell in the range of 50 to 79%.
`Cc1cc(Br)cnc1Oc1ccc(CCNc2ncnc3scc(Cl)c23)cc1` [Compound 42]: the pest or weed control at 200 ppm is 0 to 49% in assay [1]; 0 to 49% in the assay on Colletotricum lagenarium; 0 to 49% in the assay on Erysiphe cichoracaerum; 80 to 100% in assay [2]; 50 to 79% with Leptosphaeria nodorum; 0 to 49% in the assay on Phytophthora infestans. For the same compound, the pest or weed control at 75 ppm in assay [3] lay within 80 to 100%.
Turning to `CC(C)(C)OC(=O)c1ccc(Oc2ccc(CCNc3ncnc4scc(Cl)c34)cc2)cc1` [Compound 6], the pest or weed control at 200 ppm in assay [1] fell in the range of 80 to 100%; with Colletotricum lagenarium, 50 to 79%; in the assay on Erysiphe cichoracaerum, 80 to 100%; in assay [2], 80 to 100%; in the assay on Leptosphaeria nodorum it was 0 to 49%; in the assay on Phytophthora infestans, 50 to 79%. For the same compound, in assay [3], the pest or weed control at 75 ppm is 50 to 79%.
Regarding `N#Cc1ccnc(Oc2ccc(CCNc3ncnc4scc(Cl)c34)cc2)c1` [Compound 13], the pest or weed control at 200 ppm in assay [1] fell in the range of 80 to 100%; with Colletotricum lagenarium, 50 to 79%; in the assay on Erysiphe cichoracaerum, 80 to 100%; in assay [2], 80 to 100%; with Leptosphaeria nodorum, 80 to 100%; in the assay on Phytophthora infestans, 50 to 79%. Further, the pest or weed control at 75 ppm in assay [3] lay within 50 to 79%.
With `N#Cc1cc[n+]([O-])c(Oc2ccc(CCNc3ncnc4scc(Cl)c34)cc2)c1` [Compound 22], the pest or weed control at 200 ppm lay in the range of 80 to 100% in assay [1]; 50 to 79% with Colletotricum lagenarium; 50 to 79% with Erysiphe cichoracaerum; 80 to 100% in assay [2]; 50 to 79% in the assay with Leptosphaeria nodorum; 50 to 79% in the assay on Phytophthora infestans. Further, in assay [3], the pest or weed control at 75 ppm lay in the range of 0 to 49%.
Consider `N#Cc1ncc(Oc2ccc(CCNc3ncnc4scc(Cl)c34)cc2)cc1F` [Compound 30], for which the pest or weed control at 200 ppm in assay [1] was 80 to 100%; in the assay on Colletotricum lagenarium it was 80 to 100%; with Erysiphe cichoracaerum it was 50 to 79%; in assay [2], 80 to 100%; in the assay with Leptosphaeria nodorum, 0 to 49%; in the assay on Phytophthora infestans it was 50 to 79%. The pest or weed control at 75 ppm in assay [3] is 50 to 79%.
Take `N#Cc1cccnc1Oc1ccc(CCNc2ncnc3scc(Cl)c23)cc1` [Compound 28]: the pest or weed control at 200 ppm in assay [1] is 80 to 100%; in the assay with Colletotricum lagenarium it was 50 to 79%; in the assay with Erysiphe cichoracaerum, 0 to 49%; in assay [2] it was 50 to 79%; with Leptosphaeria nodorum, 50 to 79%; in the assay with Phytophthora infestans it was 0 to 49%. Also, the pest or weed control at 75 ppm in assay [3] was 50 to 79%.
For the compound `Brc1csc2ncnc(NCCc3ccc(Oc4ncnc5scc(Br)c45)cc3)c12` [Compound 57], the pest or weed control at 200 ppm in assay [1] was 80 to 100%; in the assay with Colletotricum lagenarium, 50 to 79%; in the assay with Erysiphe cichoracaerum, 0 to 49%; in assay [2], 80 to 100%; in the assay on Leptosphaeria nodorum, 0 to 49%; in the assay with Phytophthora infestans it was 0 to 49%. Further, the pest or weed control at 75 ppm in assay [3] was in the range of 0 to 49%.
Consider `Clc1csc2ncnc(NCCc3ccc(Oc4ncnc5sccc45)cc3)c12` [Compound 54], for which the pest or weed control at 200 ppm is 80 to 100% in assay [1]; 80 to 100% in the assay on Colletotricum lagenarium; 50 to 79% in the assay on Erysiphe cichoracaerum; 80 to 100% in assay [2]; 50 to 79% in the assay with Leptosphaeria nodorum; 80 to 100% in the assay on Phytophthora infestans. Moreover, the pest or weed control at 75 ppm in assay [3] was 0 to 49%.
`CC(C)c1cncnc1COc1ccc(CCNc2ncnc3scc(Cl)c23)cc1` [Compound 107]: the pest or weed control at 200 ppm fell in the range of 80 to 100% in assay [1]; 0 to 49% in the assay on Colletotricum lagenarium; 0 to 49% in the assay on Erysiphe cichoracaerum; 80 to 100% in assay [2]; 0 to 49% with Leptosphaeria nodorum; 80 to 100% with Phytophthora infestans. Also, the pest or weed control at 75 ppm in assay [3] was in the range of 50 to 79%.
For `Clc1csc2ncnc(NCCc3ccc(Oc4ncnc5scnc45)cc3)c12` [Compound 86], the pest or weed control at 200 ppm in assay [1] was 80 to 100%; in the assay on Colletotricum lagenarium, 0 to 49%; with Erysiphe cichoracaerum it was 50 to 79%; in assay [2], 50 to 79%; in the assay on Leptosphaeria nodorum it was 50 to 79%; in the assay on Phytophthora infestans, 80 to 100%. The pest or weed control at 75 ppm in assay [3] fell in the range of 80 to 100%.
On to `N#Cc1ccnc(Oc2ccc(CCNc3ncnc4scc(F)c34)cc2)c1` [Compound 55], for which the pest or weed control at 200 ppm in assay [1] lay in the range of 80 to 100%; in the assay on Colletotricum lagenarium, 80 to 100%; in the assay with Erysiphe cichoracaerum, 50 to 79%; in assay [2], 0 to 49%; in the assay on Leptosphaeria nodorum, 0 to 49%; in the assay on Phytophthora infestans, 50 to 79%. In assay [3], the pest or weed control at 75 ppm lay in the range of 50 to 79%.
Regarding `Clc1csc2ncnc(NCCc3ccc(Oc4ccccn4)cc3)c12` [Compound 18], the pest or weed control at 200 ppm was in the range of 80 to 100% in assay [1]; 0 to 49% with Colletotricum lagenarium; 80 to 100% in the assay with Erysiphe cichoracaerum; 80 to 100% in assay [2]; 0 to 49% with Leptosphaeria nodorum; 80 to 100% with Phytophthora infestans. Further, in assay [3], the pest or weed control at 75 ppm was in the range of 50 to 79%.
